Assay results: patent US12673945B2, “3-((8-((1H-pyrazol-4-yl)amino)imidazo[1,2-a]pyridin-3-yl)ethinyl)-n-phenylbenzamide derivative, method for preparing same, and pharmaceutical composition containing same as active ingredient for prevention or treatment of cancer” (DAEGU-GYEONGBUK MEDICAL INNOVATION FOUNDATION, priority 2020, dated 2026)

What was measured:
Format in all cases: cell-based
T315I-TCCS cells = assay: human CML cell proliferation inhibition; conditions: 72 hours, Cell Counting Kit-8
Summary of the method: (§1)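 Cell Counting Kit-8 read-out (450 nm, 2 h) after 72 h compound exposure at 37 °C gave GI50 relative to DMSO vehicle. Human CML lines: wild-type Bcr-Abl TCCS and KOPM28, plus T315I-TCCS and T315I-KOPM28; nine 5-fold dilutions, final 0-10 μM.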

T315I-KOPM28 cells = assay: human CML cell proliferation inhibition; conditions: 72 hours, Cell Counting Kit-8
Summary of the method: as §1

KOPM28 cells = assay: human CML cell proliferation inhibition; conditions: 72 hours, Cell Counting Kit-8
Summary of the method: as §1

TCCS cells = assay: human CML cell proliferation inhibition; conditions: 72 hours, Cell Counting Kit-8
Summary of the method: as §1

T315I-Bcr-Abl (Ba/F3) = assay: Ba/F3 cell proliferation inhibition; conditions: BaF3; 72 hours, Cell Counting Kit-8
Summary of the method: (§2)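 GI50 derived from CCK-8 absorbance at 450 nm (2 h development), expressed relative to DMSO vehicle. Cells (parental or T315I-Bcr-Abl Ba/F3, 1×10^4/well) received nine threefold-diluted concentrations, final 0 to 10 μM, for 72 h at 37 °C.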

Parental (Ba/F3) = assay: Ba/F3 cell proliferation inhibition; conditions: BaF3; 72 hours, Cell Counting Kit-8
Summary of the method: as §2

Row | SMILES | GI50 (T315I-Bcr-Abl (Ba/F3)) [nM] | GI50 (T315I-TCCS cells) [nM] | GI50 (T315I-KOPM28 cells) [nM] | GI50 (KOPM28 cells) [nM] | GI50 (TCCS cells) [nM] | GI50 (Parental (Ba/F3)) [nM]
1 | Cc1cc(F)c(C(=O)Nc2ccc(CN3CCC(N(C)C)C3)c(C(F)(F)F)c2)cc1C#Cc1cnc2c(Nc3cnn(C)c3)cccn12 (stereo not drawn) [Example 59, N-(4-((3-(dimethylamino)pyrrolidine-1-yl)methyl)-3-(trifluoromethyl)phenyl)-2-fluoro-4-methyl-5-((8-((1-methyl-1H-pyrazol-4-yl)amino)imidazo[1,2-a]pyridin-3-yl)ethynyl)benzamide] | 50 to 500 | 100 | > 100 | < 10 | < 10 | > 5000
2 | Cc1cc(F)c(C(=O)Nc2cc(N(C)CCN(C)C)cc(C(C)(C)C#N)c2)cc1C#Cc1cnc2c(Nc3cnn(C)c3)cccn12 [Example 22, N-(3-(2-cyanopropan-2-yl)-5-((2-(dimethylamino)ethyl)(methyl)amino)phenyl)-2-fluoro-4-methyl-5-((8-((1-methyl-1H-pyrazol-4-yl)amino)imidazo[1,2-a]pyridin-3-yl)ethynyl)benzamide] | 50 to 500 | 100 | 100 | < 10 | < 10 | 500 to 5000
3 | Cc1cc(F)c(C(=O)Nc2ccc(CN3CCN(C)CC3)c(C(F)(F)F)c2)cc1C#Cc1cnc2c(Nc3cn[nH]c3)cccn12 [Example 109, 5-((8-((1H-pyrazol-4-yl)amino)imidazo[1,2-a]pyridin-3-yl)ethynyl)-2-fluoro-4-methyl-N-(4-((4-methylpiperazin-1-yl)methyl)-3-(trifluoromethyl)phenyl)benzamide] | < 50 | < 10 | < 10 | < 10 | < 10 | 500 to 5000
4 | Cc1cc(F)c(C(=O)Nc2cc(N3CCN(C)C(=O)C3)cc(C(F)(F)F)c2)cc1C#Cc1cnc2c(Nc3cn[nH]c3)cccn12 [Example 100, 5-((8-((1H-pyrazol-4-yl)amino)imidazo[1,2-a]pyridin-3-yl)ethynyl)-2-fluoro-4-methyl-N-(3-(4-methyl-3-oxopiperazin-1-yl)-5-(trifluoromethyl)phenyl)benzamide] | 50 to 500 | 100 | > 100 | < 10 | < 10 | > 5000
5 | Cc1cn(-c2cc(NC(=O)c3cc(F)c(C)c(C#Cc4cnc5c(Nc6cnn(C)c6)cccn45)c3)cc(C(F)(F)F)c2)cn1 [Example 5, 3-fluoro-4-methyl-N-(3-(4-methyl-1H-imidazol-1-yl)-5-(trifluoromethyl)phenyl)-5-((8-((1-methyl-1H-pyrazol-4-yl)amino)imidazo[1,2-a]pyridin-3-yl)ethynyl)benzamide] | < 50 | 100 | 100 | 100 | 100 | > 5000
6 | Cc1cc(F)c(C(=O)Nc2cc(-c3cnn(C)c3)cc(C(C)(C)C#N)c2)cc1C#Cc1cnc2c(Nc3cn[nH]c3)cccn12 [Example 77, 5-((8-((1H-pyrazol-4-yl)amino)imidazo[1,2-a]pyridin-3-yl)ethynyl)-N-(3-(2-cyanopropan-2-yl)-5-(1-methyl-1H-pyrazol-4-yl)phenyl)-2-fluoro-4-methylbenzamide] | 50 to 500 | 100 | > 100 | < 10 | < 10 | > 5000
7 | Cc1cc(F)c(C(=O)Nc2ccc(CN3CCOCC3)c(C(F)(F)F)c2)cc1C#Cc1cnc2c(Nc3cnn(C)c3)cccn12 [Example 57, 2-fluoro-4-methyl-5-((8-((1-methyl-1H-pyrazol-4-yl)amino)imidazo[1,2-a]pyridin-3-yl)ethynyl)-N-(4-(morpholinomethyl)-3-(trifluoromethyl)phenyl)benzamide] | 50 to 500 | 100 | > 100 | < 10 | 100 | > 5000
8 | Cc1cc(F)c(C(=O)Nc2ccc(Cn3cncn3)c(C(F)(F)F)c2)cc1C#Cc1cnc2c(Nc3cnn(C)c3)cccn12 [Example 64, N-(4-((1H-1,2,4-triazol-1-yl)methyl)-3-(trifluoromethyl)phenyl)-2-fluoro-4-methyl-5-((8-((1-methyl-1H-pyrazol-4-yl)amino)imidazo[1,2-a]pyridin-3-yl)ethynyl)benzamide] | 50 to 500 | 100 | > 100 | < 10 | < 10 | > 5000
9 | Cc1cc(F)c(C(=O)Nc2ccc(CN3CCN(C)C(=O)C3)c(C(C)(C)C#N)c2)cc1C#Cc1cnc2c(Nc3cn[nH]c3)cccn12 [Example 93, 5-((8-((1H-pyrazol-4-yl)amino)imidazo[1,2-a]pyridin-3-yl)ethynyl)-N-(3-(2-cyanopropan-2-yl)-4-((4-methyl-3-oxopiperazin-1-yl)methyl)phenyl)-2-fluoro-4-methylbenzamide] | 50 to 500 | > 100 | > 100 | < 10 | < 10 | 500 to 5000

The next lines start with results.

Row | GI50 (T315I-Bcr-Abl (Ba/F3)) [nM] | SMILES | GI50 (T315I-TCCS cells) [nM] | GI50 (T315I-KOPM28 cells) [nM] | GI50 (KOPM28 cells) [nM] | GI50 (TCCS cells) [nM] | GI50 (Parental (Ba/F3)) [nM]
10 | < 50 | Cc1cc(F)c(C(=O)Nc2cc(CN3CCC(N(C)C)C3)cc(C(F)(F)F)c2)cc1C#Cc1cnc2c(Nc3cnn(C)c3)cccn12 (stereo not drawn) [Example 68, N-(3-((3-(dimethylamino)pyrrolidin-1-yl)methyl)-5-(trifluoromethyl)phenyl)-2-fluoro-4-methyl-5-((8-((1-methyl-1H-pyrazol-4-yl)amino)imidazo[1,2-a]pyridin-3-yl)ethynyl)benzamide] | 100 | 100 | < 10 | < 10 | 500 to 5000
11 | 50 to 500 | Cc1cc(F)c(C(=O)Nc2cc(N3CCCN(C)CC3)cc(C(C)(C)C#N)c2)cc1C#Cc1cnc2c(Nc3cnn(C)c3)cccn12 [Example 21, N-(3-(2-cyanopropan-2-yl)-5-(4-methyl-1,4-diazepan-1-yl)phenyl)-2-fluoro-4-methyl-5-((8-((1-methyl-1H-pyrazol-4-yl)amino)imidazo[1,2-a]pyridin-3-yl)ethynyl)benzamide] | 100 | > 100 | < 10 | < 10 | 500 to 5000
12 | < 50 | Cc1cc(F)c(C(=O)Nc2cc(CN3CCN(C)CC3)cc(C(C)(C)C#N)c2)cc1C#Cc1cnc2c(Nc3cnn(C)c3)cccn12 [Example 27, N-(3-(2-cyanopropan-2-yl)-5-((4-methylpiperazin-1-yl)methyl)phenyl)-2-fluoro-4-methyl-5-((8-((1-methyl-1H-pyrazol-4-yl)amino)imidazo[1,2-a]pyridin-3-yl)ethynyl)benzamide] | 100 | 100 | < 10 | < 10 | 500 to 5000
13 | 50 to 500 | Cc1ccc(C(=O)Nc2cc(CN3CCN(CCO)CC3)cc(C(C)(C)C#N)c2)c(F)c1C#Cc1cnc2c(Nc3cnn(C)c3)cccn12 [Example 12, N-(3-(2-cyanopropan-2-yl)-5-((4-(2-hydroxyethyl)piperazin-1-yl)methyl)phenyl)-2-fluoro-4-methyl-3-((8-((1-methyl-1H-pyrazol-4-yl)amino)imidazo[1,2-a]pyridin-3-yl)ethynyl)benzamide] | 100 | > 100 | < 10 | < 10 | > 5000
14 | < 50 | Cc1cc(F)c(C(=O)Nc2cc(CN3CCN(CCO)CC3)cc(C(C)(C)C#N)c2)cc1C#Cc1cnc2c(Nc3cn[nH]c3)cccn12 [Example 86, 5-((8-((1H-pyrazol-4-yl)amino)imidazo[1,2-a]pyridin-3-yl)ethynyl)-N-(3-(2-cyanopropan-2-yl)-5-((4-(2-hydroxyethyl)piperazin-1-yl)methyl)phenyl)-2-fluoro-4-methylbenzamide] | 100 | 100 | < 10 | < 10 | 500 to 5000
15 | 50 to 500 | Cc1cc(F)c(C(=O)Nc2cc(CN3CC(OC(C)C)C3)cc(C(C)(C)C#N)c2)cc1C#Cc1cnc2c(Nc3cnn(C)c3)cccn12 [Example 36, N-(3-(2-cyanopropan-2-yl)-5-((3-isopropoxyazetidin-1-yl)methyl)phenyl)-2-fluoro-4-methyl-5-((8-((1-methyl-1H-pyrazol-4-yl)amino)imidazo[1,2-a]pyridin-3-yl)ethynyl)benzamide] | 100 | 100 | < 10 | < 10 | > 5000
16 | 50 to 500 | Cc1cc(F)c(C(=O)Nc2cc(N(C)CCCN(C)C)cc(C(C)(C)C#N)c2)cc1C#Cc1cnc2c(Nc3cnn(C)c3)cccn12 [Example 23, N-(3-(2-cyanopropan-2-yl)-5-((3-(dimethylamino)propyl)(methyl)amino)phenyl)-2-fluoro-4-methyl-5-((8-((1-methyl-1H-pyrazol-4-yl)amino)imidazo[1,2-a]pyridin-3-yl)ethynyl)benzamide] | > 100 | > 100 | < 10 | < 10 | 500 to 5000
17 | < 50 | Cc1cc(F)c(C(=O)Nc2ccc(CN3CCN(C)CC3)c(C(C)(C)C#N)c2)cc1C#Cc1cnc2c(Nc3cn[nH]c3)cccn12 [Example 90, 5-((8-((1H-pyrazol-4-yl)amino)imidazo[1,2-a]pyridin-3-yl)ethynyl)-N-(3-(2-cyanopropan-2-yl)-4-((4-methylpiperazin-1-yl)methyl)phenyl)-2-fluoro-4-methylbenzamide] | 100 | 100 | < 10 | < 10 | 50 to 500
